Columns and labels:
Assay in all cases: relative viability (nuclei count vs DMSO), 5 days (fraction); higher = more cells survive
[1] = compound: C1=CC=C2C(=C1)C=CC(=C2SSC3=C(C=CC4=CC=CC=C43)O)O [IPA-3] + N=C(N)NC(=N)NCCc1ccccc1 [Phenformin] (partner 250 µM)
How it was run: (§1)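 For relative viability, nuclei counts in treated wells were divided by those in vehicle wells. Lung cancer cell lines had been pin-tool dosed in 1536-well plates the day after seeding and cultured for 5 days, then fixed and stained in one step (final 0.05% Triton X-100, 1% formaldehyde, 1 ug/ml Hoechst) and imaged at 4×. Doses were one drug alone or a fixed anchor-drug dose plus five library-drug doses (not always all listed) in √10 steps, and values are duplicate-plate medians.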

[2] = compound: Cc1ccc(-n2nc(C(C)(C)C)cc2NC(=O)Nc2ccc(OCCN3CCOCC3)c3ccccc23)cc1 [Doramapimod] + CC(=O)Nc1cccc(-n2c(=O)n(C3CC3)c(=O)c3c(Nc4ccc(I)cc4F)n(C)c(=O)c(C)c32)c1 [Trametinib] (partner 0.02 µM)
How it was run: as §1

[3] = compound: Cc1ccc(-n2nc(C(C)(C)C)cc2NC(=O)Nc2ccc(OCCN3CCOCC3)c3ccccc23)cc1 [Doramapimod] + CCNC(=O)c1noc(-c2cc(C(C)C)c(O)cc2O)c1-c1ccc(CN2CCOCC2)cc1 [Luminespib] (partner 0.01 µM)
How it was run: as §1

[4] = compound: C1=CC=C2C(=C1)C=CC(=C2SSC3=C(C=CC4=CC=CC=C43)O)O [IPA-3] + CC1(C)CCC(c2ccc(Cl)cc2)=C(CN2CCN(c3ccc(C(=O)NS(=O)(=O)c4ccc(N[C@H](CCN5CCOCC5)CSc5ccccc5)c(S(=O)(=O)C(F)(F)F)c4)cc3)CC2)C1 [Navitoclax] (partner 0.5 µM)
How it was run: as §1

| Cell Line | relative viability ([1]; first compound 0.2 µM) | relative viability ([1]; first compound 0.6325 µM) | relative viability ([1]; first compound 2 µM) | relative viability ([1]; first compound 6.325 µM) | relative viability ([1]; first compound 20 µM) | relative viability ([2]; first compound 0.02 µM) | relative viability ([2]; first compound 0.06325 µM) | relative viability ([2]; first compound 0.2 µM) | relative viability ([2]; first compound 0.6325 µM) | relative viability ([2]; first compound 2 µM) | relative viability ([3]; first compound 0.02 µM) | relative viability ([3]; first compound 0.06325 µM) | relative viability ([3]; first compound 0.2 µM) | relative viability ([3]; first compound 0.6325 µM) | relative viability ([3]; first compound 2 µM) | relative viability ([4]; first compound 0.2 µM) | relative viability ([4]; first compound 0.6325 µM) | relative viability ([4]; first compound 2 µM) | relative viability ([4]; first compound 6.325 µM) | relative viability ([4]; first compound 20 µM) |
| --- | --- | --- | --- | --- | --- | --- | --- | --- | --- | --- | --- | --- | --- | --- | --- | --- | --- | --- | --- | --- |
| NCI-H358 | 0.433 | 0.355 | 0.306 | 0.359 | 0.278 | 0.163 | 0.137 | 0.124 | 0.15 | 0.156 | 0.276 | 0.424 | 0.516 | 0.38 | 0.208 |  |  |  |  |  |
| H3255 | 0.443 | 0.368 | 0.343 | 0.386 | 0.408 | 0.581 | 0.522 | 0.626 |  | 0.522 | 0.947 | 0.844 | 0.843 | 0.686 | 0.697 | 0.543 | 0.523 | 0.446 | 0.566 | 0.603 |
| NCI-H2228 | 0.556 | 0.31 | 0.336 | 0.377 | 0.284 | 0.391 | 0.44 | 0.46 | 0.519 | 0.484 | 0.151 | 0.151 | 0.107 | 0.14 | 0.131 | 0.917 | 0.89 | 0.788 | 0.886 | 1.02 |
| CAL-12T | 0.763 | 0.512 | 0.529 | 0.529 | 0.694 | 0.333 | 0.325 | 0.342 | 0.402 | 0.297 | 0.363 | 0.381 | 0.345 | 0.364 | 0.395 | 1.41 | 1.21 | 1.39 | 1.19 | 1.23 |
| A-427 | 0.395 | 0.295 | 0.288 | 0.253 | 0.447 | 0.763 | 0.714 | 0.79 |  | 0.619 | 0.979 | 0.806 | 1.08 |  | 0.918 | 0.996 | 0.857 | 0.98 | 0.856 | 0.99 |
| HARA | 0.653 | 0.427 | 0.432 | 0.442 | 0.564 | 0.634 | 0.414 | 0.749 | 0.602 | 0.5 | 0.779 | 0.688 | 0.873 |  | 0.576 | 1.18 | 1.09 | 1.12 | 1.01 | 1.2 |
| NCI-H1793 | 0.509 | 0.317 | 0.334 | 0.458 | 0.545 | 0.418 | 0.435 | 0.408 | 0.377 | 0.406 | 0.157 | 0.174 | 0.144 | 0.23 | 0.161 | 0.518 | 0.37 | 0.395 | 0.44 | 0.594 |
| NCI-H1623 | 0.605 | 0.583 | 0.618 | 0.563 | 0.655 |  |  |  |  |  | 0.555 | 0.505 | 0.52 | 0.571 | 0.464 |  |  |  |  |  |
| NCI-H2009 | 0.539 | 0.477 | 0.495 | 0.445 | 0.387 | 0.285 | 0.247 | 0.351 | 0.308 | 0.239 | 1.05 | 1.17 | 1.12 | 1.23 | 1.04 | 1.29 | 1.17 | 1.19 | 1.16 | 1.15 |

From the supplement of paper PMC10307832
